# Entries after “also recorded” stand apart in the source; their conditions may differ. Ends that are not written are not given here.
# Legend:
# [1] = system: oxidative burst in inflammatory cells (reactive oxygen species); assay: Oxidative burst (ROS, DHR 123 flow cytometry) in leukocytes isolated from brain tissue after mild brain injury (controlled cortical impact); format: in vivo, C57/B6 mice
# Protocol: FIG. 1 depicts principle of assaying oxidative burst within inflammatory cells. Dihydrorhodamine 123 (DHR 123) diffuses across the cell membrane. When it encounters reactive oxygen species (ROS), DHR 123 is oxidized and fluoresces green. The fluorescence is then measured and presented as arbitrary fluorescence unit (AFU), wherein higher intensity means greater oxidative burst and, therefore greater concentration of amount of ROS (See Chen, et al., Measurement of oxidative burst in neutrophils,” Methods Mol Biol., 844: 115-124 (2012); which is incorporated herein by reference in its entirety).
# Ghrelin administration reduces oxidative burst in inflammatory cells following mBI. Since no well-accepted animal model exists for concussions, a very small cerebral lesion that closely mimics mBI is used as a model of mBI. […] Anesthesia is assessed by paw pinch reflex. […]
# Animals are separated into three treatment groups: 1) Sham, 2) mBI, and 3) mBI plus ghrelin. […] The fluorescence is then measured and presented as arbitrary fluorescence unit (AFU), wherein higher intensity means greater oxidative burst and, therefore greater concentration or amount of ROS. […] Oxidative burst, which is a marker for ROS, can be measured by flow cytometry (e.g., FL1 channel with 488-nm laser).
# [2] = system: blood brain barrier (BBB) vascular permeability; Aquaporin 4 (AQP-4); assay: Ghrelin treatment of TBI animals (background statement): BBB vascular permeability and Aquaporin 4 expression; format: in vivo; details: following TBI
substance,measurement,setting,value
"Gly-Ser-Ser-Phe-Leu-Ser-Pro-Glu-His-Gln-Arg-Val-Gln-Gln-Arg-Lys-Glu-Ser-Lys-Lys-Pro-Pro-Ala-Lys-Leu-Gln-Pro-Arg (SEQ ID NO. 1) (GSSFLSPEHQRVQQRKESKKPPAKLQPR; not fully specified (residues 2, 3); printed as Gly-Ser-Ser-Phe-Leu-Ser-Pro-Glu-His-Gln-Arg-Val-Gln-Gln-Arg-Lys-Glu-Ser-Lys-Lys-Pro-Pro-Ala-Lys-Leu-Gln-Pro-Arg; also: octanoyl on Ser2 and/or Ser3 stated only as an option; listed as Homo sapiens) [ghrelin, 28-amino acid peptide, neuroendocrine hormone, endogenous ligand for growth hormone secretagogue receptor; obtainable from Phoenix Pharmaceuticals]",Oxidative burst of ipsilateral whole brain following mild BI (mean fluorescence intensity),"[1]; mild BI+ghrelin (2 doses), subcutaneous 10 μg following mBI and 10 μg 1 hour after, vs 7963 AFU±2900 mild BI and 4624 AFU±1858 sham, n=5, p=0.048",3257 AFU
same,"Oxidative burst in inflammatory cells following mBI (FIG. 2, peak shift)","[1]; subcutaneous ghrelin vs untreated mBI, n=3 animals in each group",reduced the oxidative burst; also recorded: lower oxidative burst
same,Post-TBI up-regulation of Aquaporin 4 (AQP-4),[2],prevents post-TBI up-regulation of Aquaporin 4
